This note sets out measurements from PMC8097242, “Galectin-4 N-Terminal Domain: Binding Preferences Toward A and B Antigens With Different Peripheral Core Presentations” (Frontiers in Chemistry, 2021).

The structures appear in SMILES notation.

Common to all, as to format: binding
Assay [1] concerns the target T1, N-terminal CRD of hGalectin-4 (Gal-4N) (Homo sapiens, UniProt P56470).
T1 construct: N-terminal CRD of hGalectin-4 (amino acids 1–150, including an additional C-terminus His-Tag); His-Tag (C, cleaved yes); made in house; host or cells: E. coli BL21 (pET29b)
T1 sequence (P56470 1-150): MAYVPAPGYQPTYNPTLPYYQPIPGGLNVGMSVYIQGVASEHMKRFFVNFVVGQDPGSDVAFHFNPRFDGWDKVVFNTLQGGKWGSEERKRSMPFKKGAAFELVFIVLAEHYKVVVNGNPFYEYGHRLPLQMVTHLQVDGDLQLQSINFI
Briefly: 1H-15N HSQC NMR-based titrations (chemical shift perturbation) of 15N-labeled Gal-4N. The method, then:
The molecular recognition event was also analyzed from the perspective of the lectin. Thus, a chemical shift perturbation (CSP) analysis of the changes produced in the ^1H-^15N HSQC spectra recorded for ^15N-labeled Gal-4N upon addition of the different ligands was carried out. This analysis required the NH backbone NMR assignment of the lectin signals, following well-established triple resonance 3D NMR methods (see Materials and methods and Supplementary Information). The assignment protocol allowed assigning 80% of the NH backbone resonances. In addition to the ligands shown in Scheme 1, the corresponding non-fucosylated analogs and the H antigens (devoid of the terminal Gal/GalNAc moieties, see Supplementary Information), as well as lactose, were also employed. Thus, a full comparative analysis on the monosaccharide-specific effects on the lectin CSP was achieved.
The total volume for the NMR samples was 500/μl. The lectin was in phosphate-buffered saline (50 mM sodium phosphate, 150 mM NaCl, pH 7.4), either in D2O or 90:10 H2O:D2O depending on the NMR experiment. The pH was adjusted with the required amount of NaOH and HCl or NaOD and DCl.
experiments were acquired using an 800 MHz Bruker spectrometer with a cryoprobe (Bruker, Billerica, MA, United States). The samples were prepared using 50 μM of the ^15N-labeled lectin in the corresponding buffer in a 90:10 H2O:D2O ratio. The experiments were performed at 298 K. Six to nine points were recorded for each ligand and CSP and KD were calculated using CcpNmr Analysis 2.4.2.

The target of assay [2] is T1, N-terminal CRD of hGalectin-4 (Gal-4N). The assay can be described thus: Isothermal titration calorimetry (ITC). Particulars: for Kd: PBS pH 7.4, single binding site model. Here is the method:
Isothermal titration calorimetry experiments were performed using the MicroCal PEAQ-ITC calorimeter (Malvern Panalytical, Malvern, United Kingdom). Samples containing 100–200 μM of Gal-4N in PBS (50 mM sodium phosphate, pH 7.4, 300 mM NaCl) were titrated with stocks of 3–10 mM in PBS of glycans 4, 5, 7, 8, 9, and 11. During the automated experiment, small aliquots (2–3 μL) of the sugar stocks were added to the cell containing the lectin. Curve fitting to a single binding site model was performed with the MicroCal Origin 7 software.
Isothermal titratrion calorimetry (ITC). Isothermal Titration Calorimetry experiments were performed using MicroCal PEAQ-ITC calorimeter. Samples containing 100-200 µM of Gal-4N in PBS (50 mM sodium phosphate pH 7.4, 300 mM NaCl) were titrated with stocks of 3-10 mM in PBS of glycans A type 1, A type 2, A type 6, B type 1, B type 2 and B type 6. During the automated experiment, small aliquots (2-3 µL) of the sugar stocks were added to the cell containing the lectin. The association constants and the thermodynamic profile of the binding was calculated from the fitting of the titration data to a single binding site model.

Assay [3] has the same target. Briefly: 1H Saturation Transfer Difference (STD) NMR epitope mapping. Here is the method:
^1H-saturation transfer difference NMR spectra were acquired for mixtures of Gal-4N (50 μM) with a 50-fold excess of ligand. Protein aromatic irradiation afforded the best STD intensities and thus these are discussed henceforth. The STD NMR spectra were very similar among the different ligands with respect to both the observed glycan protons and their intensities. […] Severe proton overlapping precluded a full comparison among ligands, but key isolated ^1H NMR resonance signals permitted to highlight evident differences.
All the STD NMR experiments were performed using an 800 MHz Bruker spectrometer with a cryoprobe (Bruker, Billerica, MA, United States). The samples were prepared in the corresponding deuterated buffer. The temperature was 288 K for every experiment. An amount of 50 μM of the lectin with 50 equivalents of the ligand was employed for every experiment except for lactose, for which a 1:70 ratio was used. The STD spectra were acquired with 1,024 scans, 2 s of saturation time using a train of 50 ms Gaussian-shaped pulses, and 3 s of relaxation delay. The spin-lock filter applied to remove the signals of the lectin was set at 40 ms. The on-resonance frequency was set for the aromatic region at 6.58 ppm, while the off-resonance frequency was set at 100 ppm.
Supplementary Table S1. Relative STD-AF (Amplification factor) and STD percentage of each non overlapping proton of each ligand.

Where [4] appears, read: HSQC NMR-based titration, 50 μM 15N-labeled lectin, 298 K, read-out: KD (μM) (NMR).
Setting [5] is: 1H-residue H1GalNAc, 50:1 ligand:lectin, 288 K.
[6] abbreviates: 1H-residue H4GalNAc (terminal, A type 6).
Setting [7] is: 1H-residue H4GalNAc (B type 4, core GalNAc).

For the compound `OC[C@H]1O[C@@H](O[C@H]2[C@H](O)[C@@H](O)C(O)O[C@@H]2CO)[C@H](O)[C@@H](O)[C@H]1O` (mixture of isomers) [Lactose], the dissociation constant (Kd) in assay [1] (NMR titration, read-out: KD) stood at 1600 µM.
`CC(=O)N[C@@H]1[C@@H](O[C@@H]2O[C@H](CO)[C@H](O)[C@H](O[C@H]3O[C@H](CO)[C@H](O)[C@H](O)[C@H]3NC(C)=O)[C@H]2O[C@@H]2O[C@@H](C)[C@@H](O)[C@@H](O)[C@@H]2O)[C@H](O)[C@@H](CO)O[C@H]1O` [A type-1 (tetra)]: in assay [2], the “-TΔS (kcal mol^–1) (ITC)” value is on record as 1.0 kcal mol^–1; the “ΔG (kcal mol^–1) (ITC)” value was −4.9 kcal mol^–1; the “ΔH (kcal mol^–1) (ITC)” value is given as −5.9 kcal mol^–1; the affinity, expressed as Kd, was 267 µM.
`CC(=O)N[C@H]1[C@@H](O[C@H]2[C@@H](O)[C@@H](CO)O[C@@H](O[C@H]3[C@@H](O)[C@@H](CO)O[C@@H](O[C@@H]4[C@@H](O)[C@H](O)O[C@H](CO)[C@@H]4O)[C@@H]3NC(C)=O)[C@@H]2O[C@@H]2O[C@@H](C)[C@@H](O)[C@@H](O)[C@@H]2O)O[C@H](CO)[C@H](O)[C@@H]1O` [A type-4 (penta)]: in assay [1] (setting [4]), the Kd is 1380 µM. The STD% in assay [3] (1H-residue H1GalNAc) is given as 95%; in assay [3] (1H-residue H1Galβ) it was 61%; in assay [3] (1H-residue H2Galβ), 36%; in assay [3] (1H-residue H3GalNAc), 28%; in assay [3] (1H-residue H3GalNAcb), 15%; in assay [3] (1H-residue H3Galβ) it was 21%. Also, the STD% was found to be 24% in assay [3] (1H-residue H4GalNAcb), 71% in assay [3] (1H-residue H4Galβ), 100% in assay [3] (1H-residue H5Galβ) and 68% in assay [3] (1H-residue NHAc GalNAc). Moreover, the STD-AF amounted to 0.0145 in assay [3] (setting [5]); 0.0092 in assay [3] (1H-residue H1Galβ); 0.0054 in assay [3] (1H-residue H2Galβ); 0.0043 in assay [3] (1H-residue H3GalNAc); 0.0023 in assay [3] (1H-residue H3GalNAcb); 0.0032 in assay [3] (1H-residue H3Galβ). For the same compound, the STD-AF in assay [3] (1H-residue H4GalNAcb) is on record as 0.0036; in assay [3] (1H-residue H4Galβ) it was 0.0108; in assay [3] (1H-residue H5Galβ), 0.0152; in assay [3] (1H-residue MetFuc) it was 0.0012; in assay [3] (1H-residue NHAc GalNAc) it was 0.0104.
Regarding `CC(=O)NC1C(OC2C(O)C(CO)OC(OC3C(CO)OC(O)C(O)C3O)C2OC2OC(C)C(O)C(O)C2O)OC(CO)C(O)C1O` (centres unmarked) [A type-6 (tetra)], in assay [2], the “-TΔS (kcal mol^–1) (ITC)” value was determined as 2.9 kcal mol^–1. Also, in assay [2], the “ΔG (kcal mol^–1) (ITC)” value was −5.6 kcal mol^–1. The “ΔH (kcal mol^–1) (ITC)” value in assay [2] was −8.5 kcal mol^–1. Further, in assay [2] (Glc vs GlcNAc at reducing end, β1–4 linked), the “increased affinity of type-6 vs corresponding type-2 antigen” value is “two-fold”. The Kd amounted to 86 µM in assay [2] and 150 µM in assay [1] (setting [4]). For the same compound, the STD% in assay [3] (1H-residue H1 Fuc) is reported as 13%; in assay [3] (1H-residue H1GalNAc), 82%; in assay [3] (1H-residue H1Galβ), 58%; in assay [3] (1H-residue H1Glca), 21%; in assay [3] (1H-residue H1Glcb), 18%; in assay [3] (1H-residue H2GalNAc), 51%. In addition, the STD% in assay [3] (1H-residue H2Glca / H2Glcα) amounted to 34%; in assay [3] (1H-residue H2Glcb / H2Glcβ), 30%; in assay [3] (1H-residue H3Galβ) it was 39%; in assay [3] (1H-residue H3Glcb / H3Glcβ), 32%; in assay [3] (setting [6]), 16%; in assay [3] (1H-residue H4Galβ) it was 60%. In addition, the results for the STD% in assay [3] (1H-residue H5Galβ), in assay [3] (1H-residue MetFuc) and in assay [3] (1H-residue NHAc GalNAc) were 100%, 10% and 100%, respectively. For the same compound, the STD-AF in assay [3] (1H-residue H1 Fuc) is 0.0020; in assay [3] (setting [5]) it was 0.0129; in assay [3] (1H-residue H1Galβ), 0.0091; in assay [3] (1H-residue H1Glca), 0.0033; in assay [3] (1H-residue H1Glcb) it was 0.0028; in assay [3] (1H-residue H2GalNAc), 0.0081. Further, the STD-AF in assay [3] (1H-residue H2Glca / H2Glcα) amounted to 0.0054; in assay [3] (1H-residue H2Glcb / H2Glcβ), 0.0048; in assay [3] (1H-residue H3Galβ), 0.0061; in assay [3] (1H-residue H3Glcb / H3Glcβ), 0.0050; in assay [3] (setting [6]), 0.0025; in assay [3] (1H-residue H4Galβ) it was 0.0095. Further, the STD-AF was found to be 0.0158 in assay [3] (1H-residue H5Galβ), 0.0016 in assay [3] (1H-residue MetFuc) and 0.0158 in assay [3] (1H-residue NHAc GalNAc).
For the compound `CC(=O)NC1C(O)OC(CO)C(OC2OC(CO)C(O)C(OC3OC(CO)C(O)C(O)C3NC(C)=O)C2OC2OC(C)C(O)C(O)C2O)C1O` (centres unmarked) [A type−2 (tetra)], in assay [2], the “-TΔS (kcal mol^–1) (ITC)” value amounted to 1.8 kcal mol^–1, the “ΔG (kcal mol^–1) (ITC)” value is −5.1 kcal mol^–1, the “ΔH (kcal mol^–1) (ITC)” value was −6.9 kcal mol^–1 and binding was put at a Kd of 187 µM. In addition, the Kd in assay [1] (setting [4]) is 370 µM.
With `CC(=O)NC1C(OC2C(O)C(O)OC(CO)C2O)OC(CO)C(O)C1OC1OC(CO)C(O)C(OC2OC(CO)C(O)C(O)C2O)C1OC1OC(C)C(O)C(O)C1O` (centres unmarked) [B type-4 (penta)], the Kd in assay [1] (setting [4]) was determined as 460 µM. The STD% in assay [3] (1H-residue H1 Fuc) stood at 21%; in assay [3] (1H-residue H1Galα), 100%; in assay [3] (1H-residue H1Galβ), 49%; in assay [3] (1H-residue H2Galβ), 47%; in assay [3] (1H-residue H3Galα), 44%; in assay [3] (setting [7]), 30%. The STD% in assay [3] (1H-residue H4Galβ) is 68%; in assay [3] (1H-residue H5Galβ) it was 86%; in assay [3] (1H-residue MetFuc) it was 10%; in assay [3] (1H-residue NHAc (B type 4)) it was 36%. Besides, the STD-AF was determined as 0.0020 in assay [3] (1H-residue H1 Fuc); 0.0094 in assay [3] (1H-residue H1Galα); 0.0046 in assay [3] (1H-residue H1Galβ); 0.0044 in assay [3] (1H-residue H2Galβ); 0.0041 in assay [3] (1H-residue H3Galα); 0.0028 in assay [3] (setting [7]). The STD-AF was 0.0064 in assay [3] (1H-residue H4Galβ), 0.0081 in assay [3] (1H-residue H5Galβ), 0.0009 in assay [3] (1H-residue MetFuc) and 0.0034 in assay [3] (1H-residue NHAc (B type 4)).

The term Kd denotes the free concentration of one partner at which half of the binding sites on the other are occupied at equilibrium, for simple one-to-one binding.
